Laboratory results from patent publication US8846704B2, “Thiopyrimidine-based compounds and uses thereof” (YM Biosciences Austraila Pty Ltd, priority 2007, dated 2014).

Assays:
human JAK1 = biological target: T1, human JAK1 (Homo sapiens, UniProt P23458); assay: Alphascreen tyrosine kinase enzyme assay, JAK1 kinase domain; format: biochemical; conditions: read-out: JAK1 IC50_nM
T1 construct: The kinase domain of human JAK1 was amplified; GST (N); made in house; host or cells: Sf9 insect cells (baculovirus)
T1 sequence (P23458 875-1153 limits assumed): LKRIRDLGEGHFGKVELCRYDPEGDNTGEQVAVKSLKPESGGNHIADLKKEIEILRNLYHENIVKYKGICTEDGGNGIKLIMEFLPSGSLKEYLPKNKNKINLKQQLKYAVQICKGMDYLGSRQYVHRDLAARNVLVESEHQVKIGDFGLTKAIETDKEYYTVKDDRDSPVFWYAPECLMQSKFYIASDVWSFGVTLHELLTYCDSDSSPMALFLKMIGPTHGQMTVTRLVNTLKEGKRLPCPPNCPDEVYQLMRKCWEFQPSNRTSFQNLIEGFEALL
Procedure: (§1) For screening purposes, compounds (in 100% DMSO) were warmed at 37 degrees for at least 20 minutes before use. A […] stock was initially made in assay buffer, where the final concentration of DMSO was 0.3%. The stocks were then diluted in 384 well Optiplates (Packard) where the final concentration of the compound was […].
The kinase domain of human JAK1 was amplified from U937mRNA using the polymerase chain reaction with the following primers: […]
The JAK1 PCR products were cloned into the pDest20 destination vector (Gibco). The JAK1 plasmid was then transformed into competent DH10Bac cells (Gibco), and the recombinant baculovirus was prepared via Sf9 insect cell transfection.
(§2) Baculovirus preparations from each of the constructs were infected into either one or five liters of Sf9 cells (Invitrogen) grown in SF-900 medium (Invitrogen) to a cell density of approximately 1-2×10^6 cells/ml. Cells were infected with virus at a MOI of 0.8-3.0. Cells were harvested and lysed. Tyrosine kinase domains were purified by affinity chromatography on a glutathione-agarose column (Scientifix Pty. Ltd. catalog #: GSH-200).
(§3) Kinase assays were performed in 384 well Optiplates (Packard) using an Alphascreen Protein Tyrosine Kinase PY100 detection kit The compounds were pre-incubated with affinity purified PTK domain in the presence of phosphotyrosine assay buffer (10 mM HEPES, pH 7.5, 100 mM MgCl2, 25 mM NaCl, […] and 0.1% Tween 20) for 20 minutes. The compounds were then incubated with substrate in the presence of ATP. The substrate used was susbtrate-1 with the sequence biotin-EGPWLEEEEEAYGWMDF-NH2 [SEQ. ID. NO. 13] (final concentration […]). For HCK 80 μm ATP was used and incubated for 60 minutes. Alphascreen phosphotyrosine acceptor beads followed by streptavidin donor beads at a concentration of 1/100 in stop buffer were added to each well under subdued light and incubated for 2-3 hours., The Alphascreen plates were read on a Packard Fusion Alpha instrument.

human JAK2 = biological target: T2, human JAK2 (Homo sapiens, UniProt O60674); assay: Alphascreen tyrosine kinase enzyme assay, JAK2 kinase domain; format: biochemical; conditions: read-out: JAK2 IC50_nM
T2 construct: The kinase domain of human JAK2 was amplified; GST (N); made in house; host or cells: Sf9 insect cells (baculovirus)
T2 sequence (O60674 849-1124 limits assumed): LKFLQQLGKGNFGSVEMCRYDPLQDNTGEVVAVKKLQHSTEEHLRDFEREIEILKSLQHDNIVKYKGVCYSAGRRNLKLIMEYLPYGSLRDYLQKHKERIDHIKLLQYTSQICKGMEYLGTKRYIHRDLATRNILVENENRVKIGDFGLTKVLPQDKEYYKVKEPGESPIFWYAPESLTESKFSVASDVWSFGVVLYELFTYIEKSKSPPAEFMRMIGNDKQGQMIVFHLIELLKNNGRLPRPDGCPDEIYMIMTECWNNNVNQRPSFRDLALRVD
Procedure: as §1
The kinase domain of human JAK2 was amplified from U937mRNA using the polymerase chain reaction with the following primers: […]
The JAK2 PCR products were cloned into the pDest20 destination vector (Gibco). The JAK2 plasmid was then transformed into competent DH10Bac cells (Gibco), and the recombinant baculovirus was prepared via Sf9 insect cell transfection.
as §2, §3

CTLL2 = assay: Cellular screening, CTLL2 cells, Alamar Blue; format: cell-based; conditions: Mus musculus, CTLL-2, read-out: CTLL2 IC50_nM
Procedure: (§4) Cell suspensions were prepared by harvesting cells from culture (the cells used in this test were in late log phase growth with high viability.) Cells were diluted in the appropriate growth medium, as described above, to 1.1× final concentration (from 50,000 cell/mL to 200,000 cell/mL, depending on cell line).
(§5) Compounds to be tested were added (10 μL, 10× final concentration) to a flat bottomed 96-well plate. The cellular suspension (90 μL per well) was then added, and the plate incubated for 40 hr at 37° C., 5% CO2. Alamar Blue 10 μL per well was added and the plates returned to the incubator for a further 4-6 hours. The plates were then read at 544 nm.

human JAK3 = biological target: T3, human JAK3 (Homo sapiens, UniProt P52333); assay: Alphascreen tyrosine kinase enzyme assay, JAK3 kinase domain; format: biochemical; conditions: read-out: JAK3 IC50_nM
T3 construct: The kinase domain of human JAK3 was amplified; GST (N); made in house; host or cells: Sf9 insect cells (baculovirus)
T3 sequence (P52333 822-1111 limits assumed): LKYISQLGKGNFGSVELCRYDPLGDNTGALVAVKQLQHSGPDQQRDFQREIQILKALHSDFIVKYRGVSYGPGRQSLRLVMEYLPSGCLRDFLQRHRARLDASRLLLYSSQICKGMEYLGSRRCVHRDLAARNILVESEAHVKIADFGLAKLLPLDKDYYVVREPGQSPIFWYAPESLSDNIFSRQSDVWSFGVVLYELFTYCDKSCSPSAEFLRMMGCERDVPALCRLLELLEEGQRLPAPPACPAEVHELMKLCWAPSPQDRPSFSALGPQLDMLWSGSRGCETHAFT
Procedure: as §1
The kinase domain of human JAK3 was amplified from U937mRNA using the polymerase chain reaction with the following primers: […]
The JAK3 PCR products were cloned into the pDest20 destination expression vector (Gibco). The JAK3 plasmid was then transformed into competent DH10Bac cells (Gibco), and the recombinant baculovirus was prepared via Sf9 insect cell transfection.
as §2, §3

BTK(h) = biological target: T4, BTK(h) (Homo sapiens, UniProt Q06187); assay: Upstate KinaseProfiler enzyme assay, BTK; format: biochemical; conditions: 500 nM compound; read-out: Percent inhibition at 500 nM BTK(h)
T4 construct: purchased Upstate Biotechnology (Dundee, UK), KinaseProfiler service
T4 sequence (Q06187 whole entry): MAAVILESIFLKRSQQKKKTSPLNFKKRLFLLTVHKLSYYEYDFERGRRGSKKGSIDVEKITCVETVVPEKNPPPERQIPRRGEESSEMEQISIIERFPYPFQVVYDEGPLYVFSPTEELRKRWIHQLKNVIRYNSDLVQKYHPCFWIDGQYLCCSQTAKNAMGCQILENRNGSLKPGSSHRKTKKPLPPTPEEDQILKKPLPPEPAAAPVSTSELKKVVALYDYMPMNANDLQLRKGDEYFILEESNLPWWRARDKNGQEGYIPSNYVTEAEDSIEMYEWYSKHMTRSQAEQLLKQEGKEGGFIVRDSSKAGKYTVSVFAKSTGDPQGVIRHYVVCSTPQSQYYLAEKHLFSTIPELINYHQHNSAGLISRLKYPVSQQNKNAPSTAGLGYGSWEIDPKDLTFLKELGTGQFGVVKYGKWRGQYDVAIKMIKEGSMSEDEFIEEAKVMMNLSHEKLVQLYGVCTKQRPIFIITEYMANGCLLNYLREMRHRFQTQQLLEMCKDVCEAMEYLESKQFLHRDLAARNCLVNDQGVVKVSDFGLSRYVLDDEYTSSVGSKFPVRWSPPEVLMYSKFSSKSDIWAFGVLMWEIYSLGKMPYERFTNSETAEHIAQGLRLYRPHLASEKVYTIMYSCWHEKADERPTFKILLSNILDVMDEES
Procedure: (§6) Further enzyme assays were conducted at Upstate Biotechnology (Dundee, UK) in the KinaseProfiler™ Assay system.
(§7) The general protocol is as follows. All kinases are pre-diluted to a 10× working concentration prior to addition into the assay. The composition of the dilution buffer for the kinases is 20 mM MOPS pH 7.0, 1 mM EDTA, 0.1% β-mercaptoethanol, 0.01% Brij-35, 5% glycerol, 1 mg/ml BSA. All substrates are dissolved and diluted to working stocks in de-ionised water.

Blk(m) = biological target: T5, Blk(m) (Mus musculus, UniProt P16277); assay: Upstate KinaseProfiler enzyme assay, Blk; format: biochemical; conditions: 500 nM compound; read-out: Percent inhibition at 500 nM Blk(m)
T5 construct: purchased Upstate Biotechnology (Dundee, UK), KinaseProfiler service
T5 sequence (P16277 whole entry): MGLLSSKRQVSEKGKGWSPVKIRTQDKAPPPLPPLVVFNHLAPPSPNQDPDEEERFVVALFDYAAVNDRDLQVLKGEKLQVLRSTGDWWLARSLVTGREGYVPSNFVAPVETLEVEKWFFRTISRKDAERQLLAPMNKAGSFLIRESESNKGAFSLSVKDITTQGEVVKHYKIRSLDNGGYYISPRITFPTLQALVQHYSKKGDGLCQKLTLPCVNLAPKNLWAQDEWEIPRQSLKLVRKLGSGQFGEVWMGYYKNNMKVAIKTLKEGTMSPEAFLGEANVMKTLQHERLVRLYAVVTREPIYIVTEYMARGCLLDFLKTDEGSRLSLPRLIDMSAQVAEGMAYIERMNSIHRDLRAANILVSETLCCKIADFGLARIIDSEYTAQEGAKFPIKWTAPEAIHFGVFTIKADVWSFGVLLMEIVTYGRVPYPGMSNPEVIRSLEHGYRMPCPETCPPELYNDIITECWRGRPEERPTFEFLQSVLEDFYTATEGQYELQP
Procedure: as §6, §7

Bmx(h) = biological target: T6, Bmx(h) (Homo sapiens, UniProt P51813); assay: Upstate KinaseProfiler enzyme assay, Bmx; format: biochemical; conditions: 500 nM compound; read-out: Percent inhibition at 500 nM Bmx(h)
T6 construct: purchased Upstate Biotechnology (Dundee, UK), KinaseProfiler service
T6 sequence (P51813 1-675): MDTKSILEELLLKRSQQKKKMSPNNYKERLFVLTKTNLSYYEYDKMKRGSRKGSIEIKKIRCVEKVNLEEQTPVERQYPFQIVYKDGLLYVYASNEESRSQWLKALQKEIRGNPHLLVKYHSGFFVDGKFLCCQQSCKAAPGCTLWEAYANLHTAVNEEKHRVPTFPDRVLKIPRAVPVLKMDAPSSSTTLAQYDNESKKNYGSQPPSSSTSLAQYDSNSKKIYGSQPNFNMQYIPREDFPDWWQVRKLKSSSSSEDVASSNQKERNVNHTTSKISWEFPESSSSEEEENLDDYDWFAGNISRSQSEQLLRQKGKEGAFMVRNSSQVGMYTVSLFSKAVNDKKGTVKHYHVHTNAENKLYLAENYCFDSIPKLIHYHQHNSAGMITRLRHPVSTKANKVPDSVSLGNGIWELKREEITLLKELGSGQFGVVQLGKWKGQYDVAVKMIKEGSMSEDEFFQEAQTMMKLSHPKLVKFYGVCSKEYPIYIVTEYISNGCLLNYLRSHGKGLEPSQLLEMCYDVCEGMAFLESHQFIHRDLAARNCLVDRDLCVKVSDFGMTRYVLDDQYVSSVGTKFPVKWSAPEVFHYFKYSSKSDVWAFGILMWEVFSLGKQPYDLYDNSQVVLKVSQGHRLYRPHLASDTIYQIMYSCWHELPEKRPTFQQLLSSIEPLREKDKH
Procedure: as §6, §7

KDR(h) = biological target: T7, KDR(h) (Homo sapiens, UniProt P35968); assay: Upstate KinaseProfiler enzyme assay, KDR; format: biochemical; conditions: 500 nM compound; read-out: Percent inhibition at 500 nM KDR(h)
T7 construct: purchased Upstate Biotechnology (Dundee, UK), KinaseProfiler service
T7 sequence (P35968 20-1356): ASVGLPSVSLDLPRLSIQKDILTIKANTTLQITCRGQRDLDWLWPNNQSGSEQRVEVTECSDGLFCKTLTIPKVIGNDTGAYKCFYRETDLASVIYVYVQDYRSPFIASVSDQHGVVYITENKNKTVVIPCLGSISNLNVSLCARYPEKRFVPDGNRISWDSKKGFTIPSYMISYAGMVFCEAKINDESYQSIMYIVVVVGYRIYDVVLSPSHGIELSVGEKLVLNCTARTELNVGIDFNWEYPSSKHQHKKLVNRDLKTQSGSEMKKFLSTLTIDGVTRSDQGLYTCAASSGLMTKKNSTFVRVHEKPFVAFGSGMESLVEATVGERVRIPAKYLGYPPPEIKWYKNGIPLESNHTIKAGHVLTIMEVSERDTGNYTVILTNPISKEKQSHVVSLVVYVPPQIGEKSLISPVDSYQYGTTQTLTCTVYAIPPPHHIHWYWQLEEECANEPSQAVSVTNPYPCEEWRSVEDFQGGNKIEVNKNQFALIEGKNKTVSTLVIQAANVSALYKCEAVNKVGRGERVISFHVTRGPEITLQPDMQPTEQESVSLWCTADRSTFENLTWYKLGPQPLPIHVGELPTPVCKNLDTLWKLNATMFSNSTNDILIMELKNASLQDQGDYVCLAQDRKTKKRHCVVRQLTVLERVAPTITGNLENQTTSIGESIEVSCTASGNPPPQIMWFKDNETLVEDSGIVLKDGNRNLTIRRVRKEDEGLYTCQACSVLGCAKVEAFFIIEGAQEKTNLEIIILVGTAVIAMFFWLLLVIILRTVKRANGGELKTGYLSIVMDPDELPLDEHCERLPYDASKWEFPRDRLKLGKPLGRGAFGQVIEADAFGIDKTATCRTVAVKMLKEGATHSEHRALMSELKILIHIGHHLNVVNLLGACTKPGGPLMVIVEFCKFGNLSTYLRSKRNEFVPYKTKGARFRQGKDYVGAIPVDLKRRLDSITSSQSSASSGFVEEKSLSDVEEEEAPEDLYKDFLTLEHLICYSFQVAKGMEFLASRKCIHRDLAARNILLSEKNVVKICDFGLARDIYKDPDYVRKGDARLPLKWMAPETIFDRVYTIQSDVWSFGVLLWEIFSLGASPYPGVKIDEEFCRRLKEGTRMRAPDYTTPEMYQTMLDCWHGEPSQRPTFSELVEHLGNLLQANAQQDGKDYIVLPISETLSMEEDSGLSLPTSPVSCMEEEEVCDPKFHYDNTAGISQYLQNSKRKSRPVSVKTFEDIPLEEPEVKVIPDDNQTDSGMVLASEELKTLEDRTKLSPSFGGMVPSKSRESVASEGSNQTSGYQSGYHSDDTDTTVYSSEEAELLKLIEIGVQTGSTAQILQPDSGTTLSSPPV
Procedure: as §6, §7

BaF3 wild-type cells = assay: Cellular screening, BaF3 wild-type cells, Alamar Blue; format: cell-based; conditions: Mus musculus, 40 hr, read-out: BAF3wt IC50_nM
Procedure: (§8) For screening purposes, compounds were diluted in 96 well plates at a concentration of 20 μM. Plates were warmed at 37° C. for 30 minutes before the assay was performed.
(§9) The growth factor dependant myelomonocytic cell line BaF3 bearing the pTET-off plasmid (Clontech) was transfected with either pTELJAK2 or pTELJAK3, and the transfected cells were selected for growth-factor independent cell growth. The BaF3 wild-type cells were cultured in DMEM containing 10% FCS, 10% WEHI 3B conditioned medium. The BaF3 TELJAK cells ([…]) were cultured in DMEM 10% Tet-System Approved FBS (without WEHI 3B conditioned medium).
as §4, §5

[1] = biological target: T8, BaF3 TELJAK2 cells (BafT_J2) (Homo sapiens, UniProt O60674); assay: Cellular screening, BaF3 TEL:JAK2 cells, Alamar Blue; format: cell-based; conditions: 40 hr, read-out: BafT_J2 IC50_nM
T8 construct: fused on or other part: TEL (ETV6) N-terminal part, coding nucleotides 1-487, serves as the oligomerising partner; It is fused through a Sal I site to the JAK2 kinase domain and expressed from pTRE2 in BaF3 cells bearing pTET-off; P41212 (Transcription factor ETV6)
T8 sequence (O60674 whole entry, change not shown, the tested form may be a part): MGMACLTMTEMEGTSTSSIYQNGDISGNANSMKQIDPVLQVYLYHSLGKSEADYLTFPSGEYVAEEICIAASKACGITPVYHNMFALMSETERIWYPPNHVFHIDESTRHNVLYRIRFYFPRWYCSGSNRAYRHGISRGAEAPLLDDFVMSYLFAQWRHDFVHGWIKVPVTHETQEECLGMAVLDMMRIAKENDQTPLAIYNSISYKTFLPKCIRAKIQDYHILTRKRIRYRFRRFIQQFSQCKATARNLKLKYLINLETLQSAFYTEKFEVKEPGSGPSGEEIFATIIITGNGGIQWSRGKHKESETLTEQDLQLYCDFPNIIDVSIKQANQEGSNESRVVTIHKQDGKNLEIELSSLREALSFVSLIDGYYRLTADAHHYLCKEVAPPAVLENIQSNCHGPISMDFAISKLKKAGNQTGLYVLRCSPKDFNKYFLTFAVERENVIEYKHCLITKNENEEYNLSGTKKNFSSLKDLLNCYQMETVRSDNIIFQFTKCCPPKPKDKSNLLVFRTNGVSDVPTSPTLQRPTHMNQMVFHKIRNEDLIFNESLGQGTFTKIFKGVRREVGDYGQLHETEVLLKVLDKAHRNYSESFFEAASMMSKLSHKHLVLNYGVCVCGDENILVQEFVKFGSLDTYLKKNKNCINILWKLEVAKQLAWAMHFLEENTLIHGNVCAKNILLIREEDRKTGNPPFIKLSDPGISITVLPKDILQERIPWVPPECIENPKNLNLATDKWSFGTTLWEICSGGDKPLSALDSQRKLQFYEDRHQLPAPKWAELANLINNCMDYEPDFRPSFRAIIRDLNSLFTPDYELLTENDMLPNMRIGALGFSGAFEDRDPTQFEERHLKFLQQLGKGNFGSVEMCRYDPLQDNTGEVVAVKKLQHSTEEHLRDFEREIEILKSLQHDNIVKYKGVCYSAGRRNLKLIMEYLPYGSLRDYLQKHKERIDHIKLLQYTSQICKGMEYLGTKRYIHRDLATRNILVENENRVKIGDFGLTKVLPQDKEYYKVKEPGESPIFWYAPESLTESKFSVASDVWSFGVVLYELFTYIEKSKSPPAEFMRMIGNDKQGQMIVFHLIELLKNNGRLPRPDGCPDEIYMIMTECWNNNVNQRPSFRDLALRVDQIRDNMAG
Procedure: as §8
The coding region encompassing nucleotides 1-487 of TEL was amplified by PCR using the oligonucleotides STEL (5′-GGAGGATCCTGATCTCTCTCGCTGTGAGAC-3′) [SEQ ID NO 14] and 3TEL (5′-AGGC GTCGACTTCTTCTTCATGGTTCTG-3′) [SEQ ID NO 15] and U937 mRNA as a template. A […] restriction site was incorporated into the STEL primer, and a Sal I restriction site was incorporated into the 3TEL primer. The regions encompassing the kinase domain of JAK2 (nucleotides 2994-3914; JAK2F 5′-ACGC GTCGACGGTGCCTTTGAAGACCGGGAT-3′ [SEQ ID NO 16]; JAK2R 5′-ATAGTTTAGCGGCCGCTCAGAATGAAGGTCATTT-3′) [SEQ ID NO 17] and JAK3 (nucleotides 2520-3469; JAK3F 5′-GAAGTCGACTATGCCTGCCAAGACCCCACGATCTT-3′) [SEQ ID NO 18] were generated by PCR using Taq DNA polymerase (Gibco/BRL) and […] as a template. A Sal I restriction site was incorporated into the forward primer of JAK2 and JAK3, a Not I site was incorporated into the JAK2 reverse primer and a Xba I site was added to the reverse primer of JAK3.
A TEL/Jak2 fusion was generated by digestion of the TELPCR product with BamH I/Sal I restriction enzymes, digestion of the JAK2 PCR product with Sal I/Not I restriction enzymes, followed by ligation and subcloning of the ligation product into the mammalian expression Vector pTRE 2 (Clontech), which was prepared by digestion with BamH I-Not I restriction enzymes, to give the TEL/Jak2 fusion plasmid pTELJAK2.
as §9, §4, §5

| Compound | IC50 (human JAK1) [nM] | IC50 (human JAK2) [nM] | IC50 (CTLL2) [nM] | IC50 (human JAK3) [nM] | inhibition at 0.5 µM (BTK(h)) [%] | inhibition at 0.5 µM (Blk(m)) [%] | inhibition at 0.5 µM (Bmx(h)) [%] | inhibition at 0.5 µM (KDR(h)) [%] | IC50 (BaF3 wild-type cells) [nM] | GI50 [1] [nM] |
| --- | --- | --- | --- | --- | --- | --- | --- | --- | --- | --- |
| C=CC(=O)Nc1cccc(Nc2nccc(Sc3ncccn3)n2)c1 [Compound 3, N-(3-(4-(pyrimidin-2-ylthio)pyrimidin-2-ylao)phenyl)acrylamide] | > 1000 | > 1000 | < 5000 | < 100 |  |  |  |  |  |  |
| C=CC(=O)Nc1cccc(Sc2ccnc(Nc3cc(OC)c(OC)c(OC)c3)n2)c1 [Compound 51, N-(3-(2-(3,4,5-trimethoxyphenylamino)pyrimidin-4-ylthio)phenyl)acrylamide] |  |  |  |  | 100 | 29 | 100 | 100 |  |  |
| C/C=C/C(=O)Nc1ccc(Sc2ccnc(Nc3ccc(N4CCOCC4)cc3)n2)cc1 [Compound 59, (E)-N-(4-(2-(4-morpholinophenylao)pyrimidin-4-ylthio)phenyl)but-2-enamide] |  |  |  |  | 100 | 100 | 100 | 100 |  |  |
| C=CC(=O)Nc1ccc(Sc2ccnc(Nc3cc(OC)c(OC)c(OC)c3)n2)cc1 [Compound 71, N-(4-(2-(3,4,5-trimethoxyphenylao)pyrimidin-4-ylthio)phenyl)acrylamide] |  |  |  |  | 27 | 49 | 36 | 90 |  |  |
| N#CCc1cn(Cc2ccc(Sc3ccnc(Nc4ccc(N5CCOCC5)cc4)n3)cc2)cn1 [Compound 90, 2-(1-(4-(2-(4-Morpholinophenylamino)pyrimidin-4-ylthio)benzyl)-1H-imidazol-4-yl)acetonitrile] |  | > 1000 | < 5000 | < 500 |  |  |  |  | < 20000 | < 5000 |
| Cc1cnc(Nc2ccc(N3CCOCC3)cc2)nc1Sc1ccc(N)c(C)c1Cl [Compound 169, 4-(4-ao-2-chloro-3-methylphenylthio)-5-methyl-N-(4-morpholinophenyl)pyrimidin-2-ae] | > 1000 | > 1000 |  | < 100 |  |  |  |  |  |  |
| Cc1cnc(Nc2ccc(N3CCOCC3)cc2)nc1Sc1ccc(Cn2cnc(C#N)c2C#N)cc1 [Compound 221, 1-(4-(5-methyl-2-(4-morpholinophenylao)pyrimidin-4-ylthio)benzyl)-1H-imidazole-4,5-dicarbonitrile] |  | > 1000 | < 1000 | < 500 |  |  |  |  | < 1000 |  |
| C=CC(=O)Nc1ccc(Sc2nc(Nc3ccc(N4CCOCC4)cc3)ncc2C)c(Cl)c1 [Compound 252, N-(3-chloro-4-(5-methyl-2-(4-morpholinophenylao)pyrimidin-4-ylthio)phenyl)acrylamide] |  | > 1000 | < 1000 | < 100 |  |  |  |  | > 20000 | > 20000 |
| CC#CC(=O)Nc1cccc(Sc2ccnc(Nc3ccc(N4CCOCC4)cc3)n2)c1 [Compound 331, N-(3-(2-(4-morpholinophenylao)pyrimidin-4-ylthio)phenyl)but-2-ynamide] |  | > 1000 |  | < 500 |  |  |  |  |  |  |
| C=CC(=O)Nc1ccc(Sc2ccnc(Nc3cccc(S(=O)(=O)NCCC(C)C)c3)n2)cc1 [Compound 363, N-(4-(2-(3-(N-isopentylsulfamoyl)phenylao)pyrimidin-4-ylthio)phenyl)acrylamide] |  | > 1000 |  | < 100 |  |  |  |  |  |  |
